Experimental data taken from ChEMBL document CHEMBL3507680, “University of Dundee, Gates Library screen for HepG2 cell viability”.

Assay: Human HepG2 cell viability assay in 384 well format
Format: toxicity, cell-based
Parameters: dose 125 nL, time 70.5 hour; concentration not given beside the values
Conditions: HepG2 cells, read-out: Inhibition

Compound | cytotoxicity at 70.5 h
COC(=O)CCC(=O)N1CCc2nc(C(=O)N3CCCCC3)sc2CC1 | -1.33%
Cc1n[nH]c2ncc(CNC3CCN(Cc4ccccn4)CC3)cc12 | -6.34%
CS(=O)(=O)N1CCO[C@@H]2CN(C(=O)C3CCOC3)CC[C@@H]2C1 (stereo partly specified) | -6.14%
CC(=O)Nc1nc(C)c(S(=O)(=O)NCCc2ccccn2)s1 | -3.16%
Cc1nn(C)cc1-c1ccnc(N2CCSCC2)n1 | -1.53%
COc1cc2c(cc1OC)C(=O)C(Sc1nncn1C)C2 (stereo unspecified) | -4.34%
Cc1ccc(C2CSCCN2C(=O)c2ccsc2)o1 (stereo unspecified) | -6.25%
COCc1ccccc1CNCc1c(C)nn(C)c1N(C)C | -0.163%
COc1cccc(S(=O)(=O)NC(=O)CCC2CCCO2)c1 (stereo unspecified) | 1.07%
CCS(=O)(=O)Nc1ccn(Cc2c(F)cccc2Cl)n1 | -9.46%
CN1CC(c2cc(O)nc(NCc3cccc(F)c3)n2)CC1=O (stereo unspecified) | -10.4%
CC(C)c1nc(C2CCCN2Cc2ccno2)no1 (stereo unspecified) | -12%
CCOC(=O)C1(Cc2cccc(Cl)c2)CCCN(Cc2ncc[nH]2)C1 (stereo unspecified) | 0.345%
CC1CCN(c2ncc3c(n2)CN(c2ccc4c(c2)OCO4)C3=O)CC1 | -6.45%
CC(C)N(C)C[C@H]1C[C@@H]2CN(Cc3ccco3)C[C@@H]2O1 | -1.96%
Cc1ccccc1-n1cc(-c2ccnc(N3CCCC(O)C3)n2)cn1 (stereo unspecified) | -3.81%
CC(CCc1cccn1C)NC(=O)Nc1cccn(C)c1=O (stereo unspecified) | -10.4%
CC(CCS(C)(=O)=O)NC(=O)NCc1ccc2ccccc2c1 (stereo unspecified) | 5.09%
CS(=O)(=O)N1CCC(C(=O)N2CCN(Cc3cccc(Cl)c3)CC2)CC1 | -8.76%
O=C1NC2(CCc3ccccc31)CCN(Cc1cccnc1)C2 (stereo unspecified) | 3.7%
Cc1cc(C(=O)N2CCN(c3ccncc3Cl)CC2)n(C)n1 | -1.44%
CCOC(=O)N1CC(=O)N(Cc2ccc(OC)cc2)CC(O)C1 (stereo unspecified) | 0.836%
Cc1cnn(C2CCCN(C(=O)c3ccc(-n4cnnn4)cc3)C2)c1 (stereo unspecified) | 0.981%
Cc1nsc(NC(=O)NC2(CN3CCCCC3)CCCCC2)n1 | -9.47%

Compound | cytotoxicity at 70.5 h
CCc1nc(C2CCCN2c2ncc(Br)cn2)no1 (stereo unspecified) | -6.32%
CN1CCC(N(Cc2ccccc2)C(=O)c2nccn3ccnc23)CC1 | -7.08%
CCC[C@@H]1CN(S(=O)(=O)c2ccc(OC)c(OC)c2)C[C@H]1NC(C)=O | 6.19%
CC(C)N1CCCC(C(=O)NCc2noc(Cc3ccccc3)n2)C1 (stereo unspecified) | 8.23%
CCN1CCN(C(=O)c2scnc2C)CC1 | 18.9%
Cn1cccc1CN1CCC2(CC1)CCN(C(=O)c1cnccn1)CC2 | 10.8%
Cc1c[nH]nc1C1CCN(C(=O)C2CCC2)CC1 | -8.63%
COCc1ncn2c1CN(S(=O)(=O)c1cccc(F)c1)CC2 | -8.14%
Cc1cccc(CN2CCC3(CCC(CC(=O)N(C)C)CC3)CC2)n1 | -8.22%
N#Cc1cc(NC(=O)c2cscn2)ccc1N1CCC(O)CC1 | -4.48%
CC(C)c1nn(C)c(N2CCOCC2)c1CNCc1nncn1C | 0.87%
COCC1c2c(cnn2C)CCN1Cc1ccco1 (stereo unspecified) | -0.607%
O=C(c1nn(-c2ccccc2F)cc1O)N1CCCCC1 | -7.27%
CC1=C(C#N)C(=O)NC(=O)/C1=C\c1c(C)nn(-c2ccc(Cl)cc2)c1O | -6.07%
CCn1nc(C)c2c1cnn2CC(=O)Nc1ccc(OC)cc1C | -1.46%
Cc1cc(C#N)ccc1S(=O)(=O)NCc1cnc(N(C)C)n1C | -5.78%
CC(C)CC(NC(=O)c1cccs1)c1nc2cccnc2n1C (stereo unspecified) | -5.14%
O[C@@H]1CN(Cc2cc(Cl)cc3cccnc23)C[C@@H]1O | -4.72%
CC(C)c1ccc(/C=C/CC(=O)NC2CCN(C(N)=O)C2)cc1 (stereo unspecified) | 9%
CCc1cnc(N2CCN(CC(=O)Nc3c(C)n[nH]c3C)CC2)s1 | -3.55%
O=C(Cc1ccsc1)N1CCCC(c2cc(C(F)F)n3ncnc3n2)C1 (stereo unspecified) | 14.6%
Cc1cc(O)c(OCC(=O)Nc2nc3c(s2)CCCCC3)cn1 | -1.73%
CN(Cc1ccc(C#N)cc1)Cn1nccc1-c1cccnc1 | -4%
Cc1cccc(C)c1OC1CN(Cc2cnc(N3CCOCC3)nc2)C1 | -7%

Compound | cytotoxicity at 70.5 h
FC(F)(F)c1cccc(C2(CNCc3ccncc3)CCOCC2)c1 | 6.55%
COCCN(Cc1ccc(C)cc1)Cc1c[nH]cn1 | -7.56%
O=C1CSC(c2ccncc2)c2c[nH]nc2N1 (stereo unspecified) | -8.06%
O=C(CCCn1cncn1)NC1(c2cccc(Br)c2)CC1 | 4.56%
Cc1ccc(N2CCN(C(=O)CCc3n[nH]c(C)c3C)CC2=O)cc1 | -0.118%
Cn1cc(Br)c(C(=O)NCCCn2cc(Cl)cn2)n1 | 0.918%
Cc1ccc2c(c1)C1(CCNCC1)CC2OCC1CC1 (stereo unspecified) | -1.43%
CC(C)Oc1ccc(CSc2nnc(CN3CCCC3=O)o2)cc1 | -7.62%
N#Cc1cccnc1OC1CCNCC1 | 37.8%
O=C(CC1CC1)NC[C@]12COC[C@H]1CN(c1ncc(F)cn1)C2 | -2.2%
CCOc1ccccc1CN(C)C(C)c1nc(-c2cccnc2)no1 (stereo unspecified) | -3.75%
O=C(Cc1ccc2c(c1)CCCC2)NCCNc1cnccn1 | -11.7%
CN(C)c1ccccc1CN1CCC(N2CCCC2=O)CC1 | 17.8%
COc1ccc2c(c1)CN(c1nc(C)cc(C)n1)CC2 | 3.73%
CN1CC(C(=O)NCCc2ccc(F)c(Br)c2)CC1=O (stereo unspecified) | -8.01%
O=C(C(c1ccc(F)cc1)N1CCCCC1)N1CCn2cncc2C1 (stereo unspecified) | -1.97%
CC(C)Cc1nc(CCn2ccc(=O)[nH]c2=O)n(-c2ccccn2)n1 | 11.3%
CCC(C)NC(=O)c1sccc1-n1cnnn1 (stereo unspecified) | 27.2%
CNS(=O)(=O)c1cccc(C(C)NCc2cccc(O)c2)c1 (stereo unspecified) | -11.9%
Cn1ccnc1C1CCCN(C(=O)c2ccncc2F)C1 (stereo unspecified) | -5.94%
O=C(NCC1CC1)C1CSCN1S(=O)(=O)c1cc(F)cc(F)c1 (stereo unspecified) | -15.2%
CN(C)CC(=O)N1CCC2(CCN(Cc3cccc(F)c3)CC2)C1 | -8.05%
COCCN1C(=O)CCC12CCCN(C(=O)CC1CC1)CC2 (stereo unspecified) | -6.84%
O=C1COC2(CCN(Cc3ccoc3)CC2)CN1 | -30.5%

Compound | cytotoxicity at 70.5 h
CN(CC(=O)N1CCCC(n2ccnc2)C1)c1cnccn1 (stereo unspecified) | -1.54%
OCCNc1nccc(-c2cn3nccc3nc2C2CCCCC2)n1 | -8.52%
CCc1ncc(CN2CCC(CCc3ccccc3)CC2)cn1 | 20.8%
CCc1nnc(Nc2cc(C)nc(C3CCN(c4ccncn4)C3)n2)s1 (stereo unspecified) | 12.4%
CN(C)S(=O)(=O)NCC(Cc1cccc(F)c1)N1CCNC1=O (stereo unspecified) | -2.09%
Cc1c(NC(=O)c2cccc(Br)c2)c(C(=O)N(C)C)nn1C | 22.7%
Cn1cc(C2COC3(CCN(C(=O)c4ccn(C)n4)CC3)C2)cn1 (stereo unspecified) | -14.5%
CC(c1ccccc1)N(C)CC(=O)NCCC#N (stereo unspecified) | -11.2%
O=C(c1ccco1)N1CCCC1C1CCN(Cc2ccccc2)CC1 (stereo unspecified) | -5.08%
Cn1nc(C2CC2)c2c1NC(=O)CC2c1ccc(CN2CCCCC2)s1 (stereo unspecified) | -3.05%
CCOC(=O)CCCNc1nc(C(C)(C)C)nc2c1cnn2C | -3.02%
Cc1cc2c(N3CCC(N(C)Cc4cnn(C)c4)CC3)ncnc2s1 | -3.32%
CC(=O)NCCC(=O)NC1(c2ccc(Cl)c(Cl)c2)CC1 | -3.79%
CNc1nc(N2CCN(Cc3ccsc3)C(CCO)C2)nc2c1CCC2 (stereo unspecified) | -1.63%
O=C(NCCN1C(=O)c2ccccc2C1=O)c1scnc1Cl | -7.67%
COc1ccc(C2(C(=O)N3CC[C@@]4(O)CCNC[C@H]4C3)CCCC2)cc1 | 17.8%
O=C(CCn1c(C(F)(F)F)cc2cccnc21)NC1CCCC1 | -3.77%
Cc1cc(C(=O)N2C[C@@H]3COC[C@]3(COCc3cccnc3)C2)no1 | -12%
FC(F)(F)c1ccc(CN2CCN(Cc3cscn3)CC2)cc1 | -12.5%
c1ccc(COc2ccccc2CNC2CCc3ncnn3C2)cc1 (stereo unspecified) | -6.49%
Cn1cc(CN2CCOC(c3cccc(-c4cncnc4)n3)C2)cn1 (stereo unspecified) | -5.7%
Cc1csc(CNC(=O)N(C)Cc2ccc3c(c2)OCO3)n1 | -9.49%
CCCC(NC(=O)c1ccc(OC)cc1C)c1nnn[nH]1 (stereo unspecified) | 8.62%
CNc1nc(C(=O)N2CCC3(CCCN(CC4CC4)C3=O)C2)cs1 (stereo unspecified) | -1.68%

Compound | cytotoxicity at 70.5 h
c1cnnc(N2CCCC(NCc3nc(C4CC4)no3)C2)c1 (stereo unspecified) | -1.23%
CCN1CCN(C)C(=O)C12CCN(Cc1csc(C)n1)CC2 | -8.47%
CNS(=O)(=O)c1cccc(C(C)NCc2ccc(C)o2)c1 (stereo unspecified) | -2.97%
COc1ccccc1OC1CN(C(=O)C(c2ccccc2F)N(C)C)C1 (stereo unspecified) | -0.928%
Cc1ccc(C)c(CC(=O)NC2CCS(=O)(=O)CC2)c1 | -10.2%
Cc1ccc(S(=O)(=O)c2ncccc2CN2CCN(C)CC2)cc1 | -11.2%
Cc1[nH]ccc1C(=O)N1CCC(c2nnc(Cn3ccnc3)n2C)CC1 | -11.8%
Cc1nc(NS(=O)(=O)c2cccc(F)c2C)no1 | 6.79%
COCC(NC1CSCCSC1)c1ccnn1C (stereo unspecified) | -13.2%
Cc1nc(CNC2CCc3nc(C(C)C)nn3C2)oc1C (stereo unspecified) | -4.84%
CCc1cc(NC(C)(C)C)nc(N2CCOCC2)n1 | -12%
Cc1ccc(-c2nc(C(=O)N3CCOCC3)cs2)c(C)c1 | -12.3%
COCCCNc1nc(CNC(=O)C2CCC2)cc(-c2ccco2)n1 | -5.78%
O=C(Cc1cccs1)NCCNc1nccc(C(F)(F)F)n1 | -3.67%
COc1cc2c(cc1CNCc1cccnc1OC)OC(C)C2 (stereo unspecified) | -8.84%
c1ccc2oc(CN3CCCC3c3noc(C4CC4)n3)nc2c1 (stereo unspecified) | -11.3%
CNC(=O)c1cc2c(nc1NCC(C)C)CCN(S(=O)(=O)C1CC1)CC2 | -6.3%
O=C(NCC1CC1)C1CCC2(CCN(C(=O)c3cccnc3)CC2)O1 (stereo unspecified) | -9.48%
CC(C)(C)C(=O)NCCC(=O)NC(C)(C)c1ccc2c(c1)OCCO2 | 1.98%
CCNC(=O)NC(=O)CN1CCOC(c2cccc(Br)c2)C1 (stereo unspecified) | -8.56%
